# Laboratory results taken from US20240368158A1, “KINASE MODULATORS, COMPOSITIONS COMPRISING THE KINASE MODULATOR, AND METHODS OF USING THE SAME” (BIOFRONT LTD, priority 2021, published 2024).
# Legend:
# [1] = biological target: T1, FLT3-ITD (Homo sapiens, UniProt P36888); test: FLT3-ITD enzyme inhibition assay (HTRF KinEASE-TK); assay type: biochemical; conditions: FLT3-ITD protein, ATP 15 μM
# T1 construct: The FLT3-ITD protein was purchased from Invitrogen (PV6190)
# T1 sequence (P36888 1-993): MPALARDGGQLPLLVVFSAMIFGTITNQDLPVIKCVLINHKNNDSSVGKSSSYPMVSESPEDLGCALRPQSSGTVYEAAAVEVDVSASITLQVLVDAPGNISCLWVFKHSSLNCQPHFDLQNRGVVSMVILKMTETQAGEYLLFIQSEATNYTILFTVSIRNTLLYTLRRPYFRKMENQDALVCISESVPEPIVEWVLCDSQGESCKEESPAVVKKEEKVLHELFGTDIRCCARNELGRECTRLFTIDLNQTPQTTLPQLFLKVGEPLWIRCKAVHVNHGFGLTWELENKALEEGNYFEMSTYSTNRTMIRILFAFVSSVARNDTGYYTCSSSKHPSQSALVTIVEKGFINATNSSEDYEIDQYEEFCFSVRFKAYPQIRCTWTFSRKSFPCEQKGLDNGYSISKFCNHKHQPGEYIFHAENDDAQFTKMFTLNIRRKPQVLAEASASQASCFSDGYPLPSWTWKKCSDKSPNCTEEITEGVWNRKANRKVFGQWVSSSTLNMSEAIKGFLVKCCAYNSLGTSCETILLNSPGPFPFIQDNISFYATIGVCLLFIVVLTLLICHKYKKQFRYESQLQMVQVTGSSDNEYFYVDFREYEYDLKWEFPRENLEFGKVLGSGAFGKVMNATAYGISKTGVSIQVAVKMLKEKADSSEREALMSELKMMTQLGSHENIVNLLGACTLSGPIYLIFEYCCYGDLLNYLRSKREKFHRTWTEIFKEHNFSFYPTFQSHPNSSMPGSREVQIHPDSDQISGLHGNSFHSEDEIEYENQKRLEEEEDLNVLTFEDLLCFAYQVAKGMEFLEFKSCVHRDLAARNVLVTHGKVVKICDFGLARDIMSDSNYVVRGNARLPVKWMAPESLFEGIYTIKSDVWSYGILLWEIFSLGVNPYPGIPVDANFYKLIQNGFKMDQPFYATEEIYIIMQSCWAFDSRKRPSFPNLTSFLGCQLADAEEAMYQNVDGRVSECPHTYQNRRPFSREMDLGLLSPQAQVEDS
# Protocol: The compound was dissolved in 100% DMSO at the concentration of 10 mM. The FLT3-ITD protein was purchased from Invitrogen (PV6190). 5 μL per well of 2×FLT3-ITD protein was added to assay plate containing the test compound, centrifuged at 1000 rpm for 1 minute, and then incubated at 25° C. for 15 minutes. HTRF KinEASE-TK kit was purchased from Cisbio (62TK0PEC) and ATP was purchased from Thermo Fisher Scientific (R0441). TK-Substrate-biotin and ATP were added 5 μL per well mixture of 2×TK-Substrate-biotin (final conc. is […]) and ATP (final conc. is 15 μM), centrifuged at 1000 rpm for 1 minute, then incubated at 25° C. for 60 minutes. Then added 10 μL of detection buffer (0.25×TK-antibody Eu3+-cryptate, 0.125 μM streptavidine-XL 665) to the assay plate and centrifuged at 1000 rpm for 1 minute then incubated at 25° C. for 60 minutes and 4° C. incubated for overnight, the product was determined. Based on the results, the IC50 value of the compound was calculated.
# [2] = biological target: T2, HPK1 (Homo sapiens, UniProt Q92918); test: HPK1 enzyme inhibition assay (ADP-Glo); assay type: biochemical; conditions: MBP substrate, ATP
# T2 construct: purchased Signal Chem M23-11G-10
# T2 sequence (Q92918 1-346 limits assumed): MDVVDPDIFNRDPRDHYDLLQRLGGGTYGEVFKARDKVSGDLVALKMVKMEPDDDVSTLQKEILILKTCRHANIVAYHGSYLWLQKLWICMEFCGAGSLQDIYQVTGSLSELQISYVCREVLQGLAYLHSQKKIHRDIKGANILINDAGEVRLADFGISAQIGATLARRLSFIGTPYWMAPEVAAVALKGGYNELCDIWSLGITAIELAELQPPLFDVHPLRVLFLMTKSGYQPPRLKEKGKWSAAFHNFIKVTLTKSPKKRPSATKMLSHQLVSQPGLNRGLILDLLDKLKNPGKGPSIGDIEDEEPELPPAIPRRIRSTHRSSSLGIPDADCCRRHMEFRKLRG
# [3] = tested on: HPK1 p-SLP-76 in Jurkat cells; test: HPK1 p-SLP-76 inhibition assay in Jurkat cells (HTRF); assay type: cell-based; conditions: Homo sapiens, 4 h compound, anti-CD3 stimulation 20 min
Compound,IC50 [1],IC50 [2],IC50 [3]
"CN(C)CCCS(=O)(=O)N1CCN(c2cccc(-c3cnc4[nH]cc(CC(F)F)c4c3Cl)c2)C(=O)C1 [Example 60, 1-(3-(4-chloro-3-(2,2-difluoroethyl)-1H-pyrrolo[2,3-b]pyridin-5-yl)phenyl)-4-((3-(dimethylamino)propyl)sulfonyl)piperazin-2-one]",≤ 0.01 µM,≤ 0.01 µM,0.3 to 3 µM
"CCc1c[nH]c2ncc(-c3cccc(N4CCN(C(=O)COc5cccc(C6O[C@H](CO)[C@@H](O)[C@H](O)[C@H]6O)c5)CC4=O)c3)c(Cl)c12 (stereo partly drawn) [Example 50, 1-(3-(4-chloro-3-ethyl-1H-pyrrolo[2,3-b]pyridin-5-yl)phenyl)-4-(2-(3-((3R,4R,5S,6R)-3,4,5-trihydroxy-6-(hydroxymethyl)tetrahydro-2H-pyran-2-yl)phenoxy)acetyl)piperazin-2-one]",≤ 0.01 µM,≤ 0.01 µM,0.3 to 3 µM
"CCc1c[nH]c2ncc(-c3nc(N4CCNCC4=O)sc3C)c(Cl)c12 [Example 20, 1-(4-(4-chloro-3-ethyl-1H-pyrrolo[2,3-b]pyridin-5-yl)-5-methylthiazol-2-yl)piperazin-2-one]",0.01 to 0.1 µM,0.1 to 1 µM,> 10 µM
"CCc1c[nH]c2ncc(-c3cccc(N4CCN(C(=O)CNC(=O)[C@@H](N)C(C)C)CC4=O)c3)c(Cl)c12 [Example 44, (S)-2-amino-N-(2-(4-(3-(4-chloro-3-ethyl-1H-pyrrolo[2,3-b]pyridin-5-yl)phenyl)-3-oxopiperazin-1-yl)-2-oxoethyl)-3-methylbutanamide]",≤ 0.01 µM,≤ 0.01 µM,0.3 to 3 µM
"CS(=O)(=O)N1CCN(c2cccc(-c3cnc4[nH]cc(C5CC5)c4c3Cl)c2)C(=O)C1 [Example 53, 1-(3-(4-chloro-3-cyclopropyl-1H-pyrrolo[2,3-b]pyridin-5-yl)phenyl)-4-(methylsulfonyl)piperazin-2-one]",≤ 0.01 µM,≤ 0.01 µM,0.3 to 3 µM
"CCc1c[nH]c2ncc(-c3cccc(N4CCN(C(=O)[C@@H](N)Cc5ccccc5)CC4=O)c3)c(Cl)c12 [Example 43, 4-(L-phenylalanyl)-1-(3-(4-chloro-3-ethyl-1H-pyrrolo[2,3-b]pyridin-5-yl)phenyl)piperazin-2-one]",0.01 to 0.1 µM,≤ 0.01 µM,3 to 10 µM
"CCc1c[nH]c2ncc(-c3cccc(N4CCN(C(=O)COC)CC4=O)c3)c(Cl)c12 [Example 25, 1-(3-(4-chloro-3-ethyl-1H-pyrrolo[2,3-b]pyridin-5-yl)phenyl)-4-(2-methoxyacetyl)piperazin-2-one]",≤ 0.01 µM,≤ 0.01 µM,≤ 0.3 µM
"CCc1c[nH]c2ncc(-c3cccc(N4CCN(C(=O)CCCO[C@@H]5O[C@H](CO)[C@@H](O)[C@H](O)[C@H]5O)CC4=O)c3)c(Cl)c12 [Example 48, 1-(3-(4-chloro-3-ethyl-1H-pyrrolo[2,3-b]pyridin-5-yl)phenyl)-4-(4-(((2R,3R,4S,5S,6R)-3,4,5-trihydroxy-6-(hydroxymethyl)tetrahydro-2H-pyran-2-yl)oxy)butanoyl)piperazin-2-one]",≤ 0.01 µM,≤ 0.01 µM,> 10 µM
"O=C1CNCCN1c1cccc(-c2cnc3[nH]cc(C#Cc4ccccn4)c3c2Cl)c1 [Example 7, 1-(3-(4-chloro-3-(pyridin-2-ylethynyl)-1H-pyrrolo[2,3-b]pyridin-5-yl)phenyl) piperazin-2-one]",0.01 to 0.1 µM,0.01 to 0.1 µM,3 to 10 µM
"CCc1c[nH]c2ncc(-c3cccc(N4CCN(C(=O)COc5ccc(C[C@@H](N)C(=O)O)cc5)CC4=O)c3)c(Cl)c12 [Example 45, (R)-2-amino-3-(4-(2-(4-(3-(4-chloro-3-ethyl-1H-pyrrolo[2,3-b]pyridin-5-yl)phenyl)-3-oxopiperazin-1-yl)-2-oxoethoxy)phenyl)propanoic acid]",≤ 0.01 µM,≤ 0.01 µM,> 10 µM
